The values that follow come from patent US20250066389A1, “HETEROCYCLIC AMIDES AND METHODS OF USING THE SAME” (Rgenta Therapeutics, Inc., priority 2021, published 2025).

The term IC50 denotes the concentration needed to halve the response being measured.

In this assay the test system is PMS1. As to the kind of experiment: Mini-Gene Reporter Assay—PMS1 (firefly luciferase mini-gene reporter transiently transfected into HEK293 cells). In kind it is cell-based. Conditions: Homo sapiens, mini-gene firefly luciferase reporter in HEK293 cells; for activation at 5 µM: read-out: PMS1 % Effect at 5 uM. The procedure, abridged:
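HEK293 cells transiently transfected with a mini-gene construct (skipped exon with flanking introns/exons fused to firefly luciferase, pcDNA3.1) are incubated with compounds in duplicate. Exon inclusion raises luminescence; EC50 fitted by Levenberg-Marquardt; effect also scored at 5 μM.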
On the technique in general: Reporter assays use an easily measured gene product as a stand-in for the process of interest.

Counter-ions that a name gives are not always drawn.

Consider `CCOc1cc2nn(C)cc2cc1C(=O)Nc1cnc(NC(C)CNC)cn1` (stereo not shown) [Compound 328], for which the activation at 5 µM is less than 50%. In the case of `CCOc1cc2nn(C)cc2cc1C(=O)Nc1cnc(NCCC2(O)CNC2)nc1` [Compound 447], the activation at 5 µM is less than 50%. Regarding `COc1cc2nc(C)cn2cc1C(=O)Nc1ccc(N2CCNC(CC(F)F)C2)cc1F` (stereo not shown) [Compound 173, N-(4-(3-(2,2-difluoroethyl)piperazin-1-yl)-2-fluorophenyl)-7-methoxy-2-methylimidazo[1,2-a]pyridine-6-carboxamide], the IC50 fell in the range of 1000 to 10000 nM.

For `CCOc1cc2nc(C)cn2cc1C(=O)Nc1ccc(N2CCC3(CCCNC3)C2)nn1` (stereo not shown) [Compound 265], the half-maximal inhibitory concentration (IC50) lay in the range of 1000 to 10000 nM. Turning to `CCOc1cn2nc(C)cc2cc1C(=O)Nc1cnc(N2CCC3(CCCN3)CC2)nc1` [Compound 579], the activation at 5 µM was greater than 75%. `CCOc1cn2nc(C)cc2cc1C(=O)Nc1ccc(C2CCNCC2)nn1` [Compound 757, 6-ethoxy-2-methyl-N-(6-(piperidin-4-yl)pyridazin-3-yl)pyrazolo[1,5-a]pyridine-5-carboxamide hydrochloride]: the activation at 5 µM is greater than 75%.

Consider `Cc1cn2cc(C(=O)Nc3ccc(N4CCNCC4)cc3F)ncc2n1` [Compound 101, N-(2-fluoro-4-(piperazin-1-yl)phenyl)-2-methylimidazo[1,2-a]pyrazine-6-carboxamide HCl Salt], for which the activation at 5 µM was less than 50%. As to `COc1cc2nc(C)cn2cc1C(=O)Nc1ccc(N2[C@H](C)CNC[C@@H]2C)cc1F` [Compound 154, N-(4-((28,6R)-2,6-dimethylpiperazin-1-yl)-2-fluorophenyl)-7-methoxy-2-methylimidazo[1,2-a]pyridine-6-carboxamide], the IC50 is less than 1000 nM. Consider `CCOc1cc2nn(C)cc2cc1C(=O)Nc1cnc(NCC23CC(N)(C2)C3)nc1` [Compound 406], for which the activation at 5 µM is less than 50%. The same measure, in the same setting: then `CCOc1cc2nn(C)cc2cc1C(=O)Nc1cnc(N2CCC3(CCCN3)CC2)cn1` [Compound 343], with greater than 75%. Still for that read-out and setting: then `COc1cc2nc(C)cn2cc1C(=O)Nc1ccc(N2CCC(NCC3CC3)CC2)cc1F` [Compound 136, N-(4-(4-((cyclopropylmethyl)amino)piperidin-1-yl)-2-fluorophenyl)-7-methoxy-2-methylimidazo[1,2-a]pyridine-6-carboxamide], with 50 to 75%. The compound `CCOc1cc2nc(C)cn2cc1C(=O)Nc1ccc(N2CC[C@@H](NC(C)(C)C)C2)nn1` [Compound 723, (R)—N-(6-(3-(tert-butylamino)pyrrolidin-1-yl)pyridazin-3-yl)-7-ethoxy-2-methylimidazo[1,2-a]pyridine-6-carboxamide] showed a concentration for half-maximal inhibition (IC50) of 1000 to 10000 nM. Turning to `CCOc1cn2nc(C)cc2cc1C(=O)Nc1cnc(N2CCC(COC3CCNC3)CC2)nc1` (stereo not shown) [Compound 618], the activation at 5 µM is less than 50%. The same measure, in the same setting: then `CCOc1cc2nn(C)cc2cc1C(=O)Nc1cnc(NCC2CCCNC2)nc1` (stereo not shown) [Compound 483], with less than 50%; and `COc1cc2nc(C)cn2cc1C(=O)Nc1ccc(N2CCC3(CCNC3)CC2)cc1F` [Compound 135, N-(2-fluoro-4-(2,8-diazaspiro[4.5]decan-8-yl)phenyl)-7-methoxy-2-methylimidazo[1,2-a]pyridine-6-carboxamide], with less than 50%. Regarding `CCOc1cc2nc(C)cn2cc1C(=O)Nc1ccc(N2CCNC3CCCCC32)nn1` (stereo not shown) [Compound 243], the half-inhibitory concentration (IC50) was 1000 to 10000 nM. For `CCOc1cn2nc(C)cc2cc1C(=O)Nc1cnc(NCC2C=CCN2)nc1` (stereo not shown) [Compound 562], the activation at 5 µM is less than 50%. On the same count and under the same terms, then `CCOc1cc2nn(C)cc2cc1C(=O)Nc1cnc(NCC2CCNCC2(F)F)cn1` (stereo not shown) [Compound 335], with less than 50%. Take `CCOc1cc2nn(C)cc2cc1C(=O)Nc1ccc(N2CCN(C3CCOCC3)[C@@H](C)C2)nn1` [Compound 301, 6-ethoxy-2-methyl-N-{6-[(3S)-3-methyl-4-(oxan-4-yl)piperazin-1-yl]pyridazin-3-yl}-2H-indazole-5-carboxamide]: the IC50 is 1000 to 10000 nM. Turning to `CCCNCCNc1cnc(NC(=O)c2cc3cn(C)nc3cc2OCC)cn1` [Compound 365], the activation at 5 µM is greater than 75%. On to `CNCC1CCN(c2ccc(NC(=O)c3cn4cc(C)nc4cc3OC)c(F)c2)C1` (stereo not shown) [Compound 166, N-(2-fluoro-4-(3-((methylamino)methyl)pyrrolidin-1-yl)phenyl)-7-methoxy-2-methylimidazo[1,2-a]pyridine-6-carboxamide], for which the activation at 5 µM was less than 50%.

Compound `CCOc1cc2nn(C)cc2cc1C(=O)Nc1ccc(C2CCNCC2)nn1` [Compound 728, 6-ethoxy-2-methyl-N-(6-(piperidin-4-yl)pyridazin-3-yl)-2H-indazole-5-carboxamide hydrochloride] showed an IC50 of 1000 to 10000 nM. Take `CCOc1cc2nn(C)cc2cc1C(=O)Nc1cnc(N2CCC3(CC2)CNCCO3)nc1` [Compound 452]: the activation at 5 µM was less than 50%.

On to `CCOc1cc2nc(C)cn2cc1C(=O)Nc1cnc(N2CCNC(C)C2)cn1` (stereo not shown) [Compound 698], for which the activation at 5 µM is greater than 75%. For `CCOc1cn2nc(C)cc2cc1C(=O)Nc1cnc(NCCCC2CCCN2)nc1` (stereo not shown) [Compound 563], the activation at 5 µM is less than 50%. In the case of `CCOc1cc2nn(C)cc2cc1C(=O)Nc1cnc(NC[C@@H]2CC(F)(F)CN2)nc1` [Compound 443], the activation at 5 µM is less than 50%. On the same count and under the same terms, then `CCOc1cn2nc(C)cc2cc1C(=O)Nc1cnc(N2CCC(N)(CC)CC2)nc1` [Compound 564], with less than 50%; and `COc1cc2nc(C)cn2cc1C(=O)Nc1ccc(N2CCC3(CCN3)C2)cc1F` (stereo not shown) [Compound 171, N-(2-fluoro-4-(1,6-diazaspiro[3.4]octan-6-yl)phenyl)-7-methoxy-2-methylimidazo[1,2-a]pyridine-6-carboxamide], with greater than 75%. `CCOc1cn2nc(C)cc2cc1C(=O)Nc1cnc(N2C[C@@H](C)N[C@@H](C)C2)cn1` [Compound 744, N-(5-((3S,5R)-3,5-dimethylpiperazin-1-yl)pyrazin-2-yl)-6-ethoxy-2-methylpyrazolo[1,5-a]pyridine-5-carboxamide hydrochloride] showed a concentration for half-maximal inhibition (IC50) of 1000 to 10000 nM. `Cc1cn2cc(C(=O)Nc3ccc(N4CCN[C@@H](C)C4)nn3)c(O[C@H]3CCOC3)cc2n1` [Compound 213, 2-methyl-N-(6-((S)-3-methylpiperazin-1-yl)pyridazin-3-yl)-7-((tetrahydrofuran-3-yl)oxy)imidazo[1,2-a]pyridine-6-carboxamide] came in with an IC50 of less than 1000 nM. As for `CCOc1cc2nc(C)cn2cc1C(=O)Nc1ccc(N2CC(C)NC(CC)C2)nn1` (stereo not shown) [Compound 758, 7-ethoxy-N-(6-(3-ethyl-5-methylpiperazin-1-yl)pyridazin-3-yl)-2-methylimidazo[1,2-a]pyridine-6-carboxamide], the activation at 5 µM was greater than 75%. Turning to `COc1cc2nc(C)cn2cc1C(=O)Nc1ccc(N2CC3CCCC(C2)NC3)cc1F` (stereo not shown) [Compound 138, N-(4-(3,9-diazabicyclo[3.3.2]decan-3-yl)-2-fluorophenyl)-7-methoxy-2-methylimidazo[1,2-a]pyridine-6-carboxamide], the activation at 5 µM was greater than 75%. On to `CCOc1cc2nn(C)cc2cc1C(=O)Nc1cnc(N2CCC(n3ncc4c3CNC4)CC2)nc1` [Compound 414], for which the activation at 5 µM is less than 50%. Take `CCOc1cc2nc(C)cn2cc1C(=O)Nc1ccc(N2CC3(CC(NC)CO3)C2)nn1` (stereo not shown) [Compound 296]: the half-inhibitory concentration (IC50) lay within 1000 to 10000 nM.
